Measurements reported in publication PMC10608790, “Structural Diversity and Biological Activity of Cyanopeptolins Produced by Nostoc edaphicum CCNP1411” (Marine Drugs, 2023).

Tests used:
Type in all cases: biochemical
[1] = system: chymotrypsin; assay: Chymotrypsin inhibition assay; conditions: read-out: CHY (chymotrypsin) IC50
Experimental: (§1) In brief, the samples were prepared and serially diluted (1 mg, 1:1—1:10,000 times) in 1% DMSO; the standard inhibitors: aprotinin (trypsin and chymotrypsin) AEBSF 4-(2-aminoethyl)benzenesulfonyl fluoride hydrochloride (thrombin), elastatinal (elastase) (all from Sigma Aldrich; St. Louis, MO, USA) were also prepared in 1% DMSO. DMSO (1%) without the addition of the enzyme served as a negative control. All tests were carried out in triplicates. After the incubation of the assay mixtures, the absorbances were measured at 405 nm (Varioskan Flash Thermo Fisher Scientific OY, Vantaa, Finland). The reduction in enzyme activity greater than 50% was considered as significant.

[2] = biological target: T1, trypsin (Bos taurus, UniProt P00760); assay: Trypsin inhibition assay; conditions: class symbol instead of IC50
T1 sequence (P00760 24-246): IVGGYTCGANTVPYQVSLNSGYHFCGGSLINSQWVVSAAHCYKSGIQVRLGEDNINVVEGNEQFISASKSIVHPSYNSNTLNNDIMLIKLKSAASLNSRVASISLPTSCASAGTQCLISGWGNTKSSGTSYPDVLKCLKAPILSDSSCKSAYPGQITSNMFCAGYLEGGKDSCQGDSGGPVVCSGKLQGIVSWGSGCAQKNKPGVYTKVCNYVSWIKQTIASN
Experimental: as §1, with “The enzyme inhibitory activity of cyanopeptolins was assayed against trypsin [108], chymotrypsin, thrombin [109], and elastase as described before. In” for “In”

[3] = biological target: thrombin (Homo sapiens, UniProt P00734); assay: Thrombin inhibition assay; conditions: highest concentration in the assay 45 µg × mL−1
Experimental: as §1, with “The enzyme inhibitory activity of cyanopeptolins was assayed against trypsin [108], chymotrypsin, thrombin [109], and elastase as described before. In” for “In”

[4] = biological target: elastase (Sus scrofa, UniProt P00772); assay: Elastase inhibition assay; conditions: class symbol instead of IC50
Experimental: as §1, with “The enzyme inhibitory activity of cyanopeptolins was assayed against trypsin [108], chymotrypsin, thrombin [109], and elastase as described before. In” for “In”

elastase, sequence (P00772 27-266): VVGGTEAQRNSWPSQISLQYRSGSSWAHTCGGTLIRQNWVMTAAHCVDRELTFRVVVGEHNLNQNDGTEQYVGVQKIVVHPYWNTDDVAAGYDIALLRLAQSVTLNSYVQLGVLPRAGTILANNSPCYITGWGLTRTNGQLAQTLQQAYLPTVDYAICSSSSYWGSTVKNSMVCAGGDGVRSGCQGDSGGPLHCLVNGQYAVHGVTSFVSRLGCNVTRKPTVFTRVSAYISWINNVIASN

With `CCCCCC(=O)N[C@@H](CC(=O)O)C(=O)N[C@@H]1C(=O)N[C@@H](Cc2ccccc2)C(=O)N[C@H]2CC[C@@H](O)N(C2=O)[C@@H](Cc2ccccc2)C(=O)N(C)[C@@H](Cc2ccccc2)C(=O)N[C@@H](C(C)C)C(=O)O[C@@H]1C` [CP 981, [Thr + Phe + Ahp + Phe + MePhe + Val]Asp + HA] the IC50 [1] was 3.92 µM, the “TRY (trypsin) inhibition class” value [2] was “− (not active (inhibition below 50%))” and the “TRB (thrombin) inhibition class” value [3] was “− (not active (inhibition below 50%))”. The “E (elastase) inhibition class” value [4] was “− (not active (inhibition below 50%))”.
